Source: patent publication US20150259645A1, “METHOD FOR INDUCING IL-2-FREE PROLIFERATION OF GAMMA DELTA T CELLS” (INSERM (INSTITUT NATIONAL DE LA SANTÉ ET DE LA RECHERCHE …, priority 2012, published 2015)

Test system: Vγ9Vδ2 T lymphocytes
Experiment: CFSE dilution proliferation assay in PBMC culture, flow cytometry
Format: cell-based, human
Conditions: 100 nM BrHPP; six days culture of PBMC; FIG. 1A
Method: Fresh blood samples were collected from healthy donors, and PBMC were prepared on a Ficoll-Paque density gradient (Amersham Biosciences AB, Upssala, Sweden) by centrifugation (800 g, 30 min at room temperature).
Cell cultures were performed in complete medium: RPMI 1640 supplemented by penicillin 100 UI/ml, streptomycin 100 μg/ml, L-glutamin 2 mM, sodium pyruvate 1 mM and 10% FCS.
PBMC or PBL were labeled with 0.125 μM CFSE (Invitrogen, France) for 8 min at 37° C. and cultured in 96-well plates (3.10^5 cells per well) in 200 μl of complete medium with or without BrHPP [100 nM], IL-33 [0-1000 ng/ml] and with or without rhIL-2 [10 UI/ml] (Sanofi Aventis, France). After six days in culture CFSE dilution was evaluated in γδ T cells (CD3^+ γ9 TCR cells) by flow cytometry.
The IL-33 forms used in this example was the natural cleavage product of human IL-33 (IL-33 aa 95-270) and the truncated form of human IL-33 (IL-33 aa 112-270).
Anti-TCR γ9-APC and anti-CD3-Pacific blue were used to select Vγ9Vδ2 T lymphocytes by flow cytometry.
We studied the effect of IL-33 in combination with the specific phosphoantigen, BrHPP, on the proliferation of human Vγ9Vδ2 T lymphocytes. […] After six days in culture, the proliferation of Vγ9Vδ2 T lymphocytes was analyzed by the reduction of the CFSE fluorescence intensity on the Vγ9Vδ2 T lymphocytes gated by flow cytometry.

Structure (SMILES): CC(O)(CBr)CCOP(=O)(O)OP(=O)(O)O (stereo not shown) [BrHPP]
- proliferation of Vγ9Vδ2 T lymphocytes (CFSE dilution): induces the proliferation
